# According to paper PMC12598805, “Crystal Structure–Activity Relationship of Some MeO Phenylacrylonitriles: Dual Antimicrobial–Cytotoxic Effects and in Silico Perspectives” (ChemistryOpen, 2025):
# Experiments:
# Format in all cases: cell-based
# [1] = system: Enterococcus faecalis (ATCC 29212); test: Agar diffusion, zone of inhibition; details: ATCC29212, E.faecalis, compounds at 50 mg mL^−1
# Excerpt: (§1) The antibacterial and antifungal activities were reported utilizing the method described by the Clinical & Laboratory Standards Institute.^[ [31], [32] ^] Agar diffusion method was used to determine the antimicrobial activity of the synthesized substances. The media used were mueller hinton agar (MHA) for bacteria and sabouraud‐dextrose agar (SDA) for fungi (Merck), as recommended by the manufacturer.
# (§2) The synthesized compounds were initially investigated for their antimicrobial activity to elucidate the potential therapeutic utility against various pathogenic microbes using the agar plate diffusion method. The compounds were tested at a concentration of 50 mg mL^−1, and the antibiotics (ampicillin, kanamycin, and amphotericin B) were used at 5 mg mL^−1. […] K.pneumoniae and B.cereus were resistant to ampicillin, while they were susceptible to kanamycin with inhibition values of 30 and 26 mm, respectively. No antimicrobial activity of the compounds was observed against E.faecalis, S.typhimurium, K.pneumoniae, and for the fungus compared to Amphotericin B (20 mm). […]
# Enterococcus faecalis (ATCC 29212) […]
# (§3) ATCC: American Type Culture Collection; NRRL: Northern Regional Research Laboratory The compounds 2(a-c) obtained could only be completely solubilised with dimethyl sulphoxide (DMSO) and the highest possible stock solutions of 50 mg.mL-1 were prepared. To these wells 50 μl of the previously prepared substances were transferred using sterile micropipette tips. For comparison, Ampicillin and kanamycin antibiotics for bacteria and Amphotericin B antibiotics for fungus were used as positive controls and DMSO was used as negative control. The prepared petri plates were kept at +4°C for about 1 hour and then the bacterial cultures were incubated at 37°C for 18-24 hours and mould cultures at 27-30°C for 48-72 hours. The zones formed were measured millimetrically with callipers. The experiments were performed with three repetitions. […]
# [2] = system: Salmonella typhimurium (NRRL-B-4420); test: Agar diffusion, zone of inhibition; details: Salmonella enterica; S.typhimurium; compounds at 50 mg mL^−1
# Excerpt: as §1, §2
# Salmonella typhimurium (NRRL-B-4420) […]
# as §3
# [3] = system: Micrococcus luteus (NRRL-B-1018); test: MBC by sub-culture from wells without growth; details: NRRLB1018, M.luteus
# Procedure: (§4) Micrococcus luteus (NRRL-B-1018) […]
# (§5) ATCC: American Type Culture Collection; NRRL: Northern Regional Research Laboratory The compounds 2(a-c) obtained could only be completely solubilised with dimethyl sulphoxide (DMSO) and the highest possible stock solutions of 50 mg.mL-1 were prepared. […]
# (§6) 3.1. Determination of Minimum Inhibition Concentration (MIC)
# (§7) The minimum inhibition concentration (MIC) values of the compounds 2(a-c) against the test bacteria used in the study were determined according to the broth microdilution method.[1-2] MHB or SDB was used as test medium and bacterial and yeast suspensions were prepared at 0.5 Mc Farland concentration for each test bacteria. Double layer serial dilutions were prepared in "U" type 96-well microtiter plates. Medium+bacteria suspensions containing only medium in the first row, medium+bacteria in the second row and the final concentrations of the synthesised substances in the other rows between 25 mg.mL-1 and […] were added to the wells with a final volume of 200
# (§8) μL. Ampicillin, Kanamycin and Amphotericin B standard antibiotics were used as positive controls.
# (§9) Bacteria were incubated at 37±0.1 °C and C. albicans at 30±0.1 °C for 24-48 hours and the lowest concentration without growth was determined as MIC. Tests were performed in two parallel runs and mean values were given as a result. In order to estimate “the minimum bactericidal/fungicidal concentrations (MBC/MFC) of the synthesised acrylonitrile derivatives “needed to indicate […] killing of the original inoculum,” 10 μl was taken from the wells with no observed growth and further sub-cultured onto their agar media (MHA and SDA for bacterial and fungal strains, respectively).[3] […]
# [4] = system: Bacillus cereus (ATCC-10876); test: Broth microdilution MIC; details: Bacillus cereus, ATCC10876; B.cereus; read-out: MIC
# Procedure: (§10) Bacillus cereus (ATCC-10876) […]
# as §5, §6, §7, §8
# (§11) Bacteria were incubated at 37±0.1 °C and C. albicans at 30±0.1 °C for 24-48 hours and the lowest concentration without growth was determined as MIC. Tests were performed in two parallel runs and mean values were given as a result. […]
# [5] = system: Pseudomonas aeruginosa (ATCC 27853); test: Broth microdilution MIC; details: ATCC27853, P.aeruginosa
# Procedure: (§12) Pseudomonas aeruginosa (ATCC 27853) […]
# as §5, §6, §7, §8, §11
# [6] = system: Escherichia coli (ATCC 25922); test: Broth microdilution MIC; details: ATCC25922, E.coli
# Procedure: (§13) Escherichia coli (ATCC 25922) […]
# as §5, §6, §7, §8, §11
# [7] = system: Pseudomonas aeruginosa (ATCC 27853); test: MBC by sub-culture from wells without growth; details: ATCC27853, P.aeruginosa
# Procedure: as §12, §5, §6, §7, §8, §9
# [8] = system: Staphylococcus aureus (ATCC 29213); test: MBC by sub-culture from wells without growth; details: ATCC29213, S.aureus
# Procedure: (§14) Staphylococcus aureus (ATCC 29213) […]
# as §5, §6, §7, §8, §9
# [9] = system: Bacillus cereus (ATCC-10876); test: Agar diffusion, zone of inhibition; details: B.cereus, compounds at 50 mg mL^−1; for zone of inhibition at 50 mg/mL: Bacillus cereus, ATCC10876
# Excerpt: as §1
# The synthesized compounds were initially investigated for their antimicrobial activity to elucidate the potential therapeutic utility against various pathogenic microbes using the agar plate diffusion method. The compounds were tested at a concentration of 50 mg mL^−1, and the antibiotics (ampicillin, kanamycin, and amphotericin B) were used at 5 mg mL^−1. […] K.pneumoniae and B.cereus were resistant to ampicillin, while they were susceptible to kanamycin with inhibition values of 30 and 26 mm, respectively. No antimicrobial activity of the compounds was observed against E.faecalis, S.typhimurium, K.pneumoniae, and for the fungus compared to Amphotericin B (20 mm).
# as §10, §3
# [10] = system: Bacillus cereus (ATCC-10876); test: MBC by sub-culture from wells without growth; details: Bacillus cereus, ATCC10876; B.cereus; read-out: MBC
# Procedure: as §10, §5, §6, §7, §8, §9
# [11] = system: Staphylococcus aureus (ATCC 29213); test: Broth microdilution MIC; details: ATCC29213, S.aureus
# Procedure: as §14, §5, §6, §7, §8, §11
# [12] = system: Micrococcus luteus (NRRL-B-1018); test: Agar diffusion, zone of inhibition; details: M.luteus, compounds at 50 mg mL^−1; for zone of inhibition at 50 mg/mL: Micrococcus luteus, NRRLB1018
# Excerpt: as §1, §2, §4, §3
# [13] = system: Bacillus subtilis (ATCC-19659); test: Agar diffusion, zone of inhibition; details: B.subtilis, compounds at 50 mg mL^−1; for zone of inhibition at 50 mg/mL: Bacillus subtilis, ATCC19659
# Excerpt: as §1, §2, §3
# [14] = system: Bacillus subtilis (ATCC-19659); test: Broth microdilution MIC; details: ATCC19659, B.subtilis, read-out: MIC
# Procedure: as §5, §6, §7, §8, §11
# [15] = system: Escherichia coli (ATCC 25922); test: Agar diffusion, zone of inhibition; details: compounds at 50 mg mL^−1; for zone of inhibition: E.coli; for zone of inhibition at 50 mg/mL: Escherichia coli, ATCC25922, E.coli
# Excerpt: as §1, §2, §13, §3
MIC [4] [mg/mL],MIC [5] [mg/mL],MIC [6] [mg/mL],MIC [11] [mg/mL],MIC [14] [mg/mL],Structure (SMILES),zone of inhibition at 50 mg/mL [1] [mm],zone of inhibition at 50 mg/mL [2] [mm],MBC [3] [mg/mL],MBC [7] [mg/mL],MBC [8] [mg/mL],zone of inhibition [9] [mm],zone of inhibition at 50 mg/mL [9] [mm],MBC [10] [mg/mL],zone of inhibition [12] [mm],zone of inhibition at 50 mg/mL [12] [mm],zone of inhibition [13] [mm],zone of inhibition at 50 mg/mL [13] [mm],zone of inhibition [15] [mm],zone of inhibition at 50 mg/mL [15] [mm]
12.5,5,2.5,12.5,25,"COc1ccc(C=C(C#N)c2ccccc2)cc1 [2a, 3‐(4‐methoxyphenyl)‐2‐phenylacrylonitrile]",< 6,< 6,6.25,5,25,15 ± 2.12,15,12.5,14 ± 0.71,14,13 ± 0.71,13,13 ± 0.71,13
12.5,12.5,25,12.5,25,COc1ccc(/C=C(\C#N)c2ccc(F)cc2)cc1 [2b],< 6,< 6,12.5,12.5,25,13 ± 2.83,13,12.5,14 ± 0.71,14,13 ± 2.12,13,12 ± 1.41,12
12.5,12.5,25,6.25,25,COc1ccc(/C=C(\C#N)c2cc(C(F)(F)F)cc(C(F)(F)F)c2)cc1 [2c],< 6,< 6,5,12.5,12.5,14 ± 0.71,14,12.5,15 ± 0.71,15,14 ± 0,14,13 ± 0,13
